In patent US4576760A, “Hydroquinone sulfate derivatives and production thereof” (Takeda Chemical Industries, Ltd., priority 1983, dated 1986):

What was measured:
[1] = test system: cAMP phosphodiesterase; test: Action of inhibiting cAMP phosphodiesterase (method of Butcher and Sutherland; inorganic phosphoric acid produced from cyclic AMP); type: biochemical; conditions: phosphodiesterase from beef heart and 5'-nucleotidase
Procedure: In accordance with the method of Butcher and Sutherland [J. Biol. Chem., 237, 1244 (1962)], the action of inhibiting cAMP phosphodiesterase was determined.
**Amounts of inorganic phosphoric acid produced by decomposition of cycli
AMP with phosphodiesterase from beef heart and 5nucleotidase.

[2] = test system: peroxidation of lipids; test: Inhibition rate of peroxidation of lipids (method of Kornbrust and Mavis; malondialdehyde formed in homogenized rat livers with NADPH/Fe++); type: biochemical; conditions: homogenized livers of rats
Procedure: In accordance with the method of Kornbrust and Mavis [Mol. Pharm., 17, 400 (1980)], inhibition rate of peroxidation of lipids was determined.
Note*: Homogenized livers of rats were incubated in the presence of
NADPH/Fe^++. The amounts of malondialdehyde formed due to the
peroxidation of lipids were compared.

COc1c(O)c(C)c(CCCCCCCCCCO)c(OS(=O)(=O)O)c1OC [6-(10-hydroxydecyl)-2,3-dimethoxy-5-methylhydroquinone 1-sulfate]
Inhibition rate of phosphodiesterase ([1]; 1 × 10^-3 M): 89% | Inhibition rate of phosphodiesterase ([1]; 5 × 10^-4 M): 70% | Inhibition Rate of Peroxidation of Lipids ([2]; 1 × 10^-4 M): 59% | Inhibition Rate of Peroxidation of Lipids ([2]; 1 × 10^-5 M): 28%
